Reference: PubChem BioAssay AID248 (DTP/NCI, 2004)
“And” between values parts separate entries of the source, which are not always exact repeats. Equal values may be shown once. Inconclusive results and toxic doses are left out. Cut-off read from the data, not from the text of the source: active = T/C of 150% or more; inactive = T/C below 125%.

Tested on: L1210 leukemia ip in BDF1 mice, survival T/C
Test: NCI In Vivo Anticancer Drug Screen. Data for tumor model L1210 Leukemia (intraperitoneal) in B6D2F1 (BDF1) mice
Conditions: endpoint: mean survival time, higher = longer survival
Summary of the method: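 Each compound was tested against a transplantable tumor grown in mice. The endpoint was survival, with treated animals benchmarked against vehicle controls as a simple ratio.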

[1] = dose: 50.0 mg/kg/injection, schedule: Q01DX009 (ip), vehicle: Klucel (hydroxypropylcellulose) (HPC)
[2] = dose: 100.0 mg/kg/injection, schedule: Q01DX009 (ip), vehicle: Klucel (hydroxypropylcellulose) (HPC)
[3] = dose: 200.0 mg/kg/injection, schedule: Q01DX009 (ip), vehicle: Klucel (hydroxypropylcellulose) (HPC)
[4] = dose: 100.0 mg/kg/injection, schedule: Q04DX003 (ip), vehicle: saline with Tween-80
[5] = dose: 200.0 mg/kg/injection, schedule: Q04DX003 (ip), vehicle: saline with Tween-80
[6] = dose: 400.0 mg/kg/injection, schedule: Q04DX003 (ip), vehicle: saline with Tween-80
[7] = dose: 100.0 mg/kg/injection, schedule: Q01DX005 (ip), vehicle: saline
[8] = dose: 200.0 mg/kg/injection, schedule: Q01DX005 (ip), vehicle: saline
[9] = dose: 100.0 mg/kg/injection, schedule: Q04DX002 (ip), vehicle: saline
[10] = dose: 200.0 mg/kg/injection, schedule: Q04DX002 (ip), vehicle: saline
[11] = dose: 400.0 mg/kg/injection, schedule: Q04DX002 (ip), vehicle: saline
[12] = dose: 400.0 mg/kg/injection, schedule: Q01DX009 (ip), vehicle: Klucel (hydroxypropylcellulose) (HPC)

Measured: T/C

COC(=O)C(N)C(C)C (stereo not drawn)
inactive: dose: 25.0 mg/kg/injection, schedule: Q01DX009 (ip), vehicle: water 100 % of control | dose: 25.0 mg/kg/injection, schedule: Q04DX003 (ip), vehicle: water 106 % of control | dose: 50.0 mg/kg/injection, schedule: Q01DX009 (ip), vehicle: water 102 % of control | dose: 50.0 mg/kg/injection, schedule: Q04DX003 (ip), vehicle: water 104 % of control | dose: 100.0 mg/kg/injection, schedule: Q01DX009 (ip), vehicle: water 102 % of control | dose: 100.0 mg/kg/injection, schedule: Q04DX003 (ip), vehicle: water 114 % of control | dose: 200.0 mg/kg/injection, schedule: Q01DX009 (ip), vehicle: water 103 % of control | dose: 200.0 mg/kg/injection, schedule: Q04DX003 (ip), vehicle: water 101 % of control | dose: 400.0 mg/kg/injection, schedule: Q01DX009 (ip), vehicle: water 100 % of control | dose: 400.0 mg/kg/injection, schedule: Q04DX003 (ip), vehicle: water 104 % of control

Nc1cccc(OCCCOc2cccc([N+](=O)[O-])c2)c1
inactive: [1] 106 % of control | [2] 90 % of control | [3] 90 % of control

Cc1ccc(NC(=O)NCCOc2ccc(Br)cc2)c([N+](=O)[O-])c1
inactive: dose: 50.0 mg/kg/injection, schedule: Q01DX009 (ip), vehicle: saline with Tween-80 98 % of control | dose: 100.0 mg/kg/injection, schedule: Q01DX009 (ip), vehicle: saline with Tween-80 95 % of control | [4] 92 % of control | dose: 200.0 mg/kg/injection, schedule: Q01DX009 (ip), vehicle: saline with Tween-80 95 % of control | [5] 91 % of control | [6] 100 % of control

O=C1CC(c2ccccc2)(c2ccccc2)c2ccccc21
inactive: dose: 25.6 mg/kg/injection, schedule: Q04DX002 (ip), vehicle: saline with Tween-80 98 % of control | dose: 64.0 mg/kg/injection, schedule: Q04DX002 (ip), vehicle: saline with Tween-80 102 % of control | dose: 160.0 mg/kg/injection, schedule: Q04DX002 (ip), vehicle: saline with Tween-80 91 % of control | dose: 400.0 mg/kg/injection, schedule: Q04DX002 (ip), vehicle: saline with Tween-80 96 % of control

O=C(O)/C(Br)=C\c1ccc(Br)o1
inactive: [1] 97 % of control | [2] 94 % of control | dose: 100.0 mg/kg/injection, schedule: Q04DX002 (ip), vehicle: Klucel (hydroxypropylcellulose) (HPC) 97 % of control | [3] 97 % of control | dose: 200.0 mg/kg/injection, schedule: Q04DX002 (ip), vehicle: Klucel (hydroxypropylcellulose) (HPC) 90 % of control

CCC(O)(COC(N)=O)c1ccccc1 (stereo not drawn)
inactive: dose: 100.0 mg/kg/injection, schedule: Q01DX001 (ip), vehicle: carboxymethylcellulose (CMC) 97 % of control | dose: 200.0 mg/kg/injection, schedule: Q01DX001 (ip), vehicle: carboxymethylcellulose (CMC) 108 % of control | dose: 400.0 mg/kg/injection, schedule: Q01DX001 (ip), vehicle: carboxymethylcellulose (CMC) 94 % of control

C=CCSc1nc2c(=O)[nH]c(N)nc2n1C1OC(CO)C(O)C1O (stereo not drawn)
inactive: [7] 100 % of control | [8] 103 % of control

CSc1nc(N)nc2c1ncn2C1CC(O)C(CO)O1 (stereo not drawn)
inactive: [7] 105 % of control and 112 % of control and 96 % of control | dose: 100.0 mg/kg/injection, schedule: Q01DX009 (ip), vehicle: saline 121 % of control | [8] 112 % of control and 121 % of control and 91 % of control | dose: 200.0 mg/kg/injection, schedule: Q01DX009 (ip), vehicle: saline 115 % of control | dose: 400.0 mg/kg/injection, schedule: Q01DX009 (ip), vehicle: saline 116 % of control

O=C(O)c1ccc(N2C(=O)C=CC2=O)cc1 (tested in a mixture with another compound)
inactive: dose: 12.5 mg/kg/injection, schedule: Q01DX009 (ip), vehicle: acetone 90 % of control

Cc1ccc(C)c(NC(=O)NC2CCCCC2)c1
inactive: [9] 101 % of control | [10] 97 % of control | [11] 103 % of control

COc1ccc(C2(Br)C(=O)NN=C2C)cc1 (stereo not drawn)
inactive: dose: 100.0 mg/kg/injection, schedule: Q01DX001 (ip), vehicle: saline 95 % of control | dose: 200.0 mg/kg/injection, schedule: Q01DX001 (ip), vehicle: saline 100 % of control | dose: 400.0 mg/kg/injection, schedule: Q01DX001 (ip), vehicle: saline 95 % of control

N/N=C(\N)N(Cc1ccccc1)c1ccccc1
inactive: dose: 7.5 mg/kg/injection, schedule: Q01DX001 (ip), vehicle: saline 94 % of control | dose: 7.5 mg/kg/injection, schedule: Q01DX009 (ip), vehicle: saline 96 % of control | dose: 7.5 mg/kg/injection, schedule: Q04DX003 (ip), vehicle: saline 97 % of control | dose: 15.0 mg/kg/injection, schedule: Q01DX001 (ip), vehicle: saline 92 % of control | dose: 15.0 mg/kg/injection, schedule: Q01DX009 (ip), vehicle: saline 94 % of control | dose: 15.0 mg/kg/injection, schedule: Q04DX003 (ip), vehicle: saline 95 % of control | dose: 30.0 mg/kg/injection, schedule: Q01DX001 (ip), vehicle: saline 100 % of control | dose: 30.0 mg/kg/injection, schedule: Q01DX009 (ip), vehicle: saline 102 % of control | dose: 30.0 mg/kg/injection, schedule: Q04DX003 (ip), vehicle: saline 97 % of control

NC(N)=N/N=C/C(O)CO (stereo not drawn)
inactive: dose: 15.0 mg/kg/injection, schedule: Q01DX Z (ip), vehicle: methylcellulose (MC) 104 % of control | dose: 30.0 mg/kg/injection, schedule: Q01DX Z (ip), vehicle: methylcellulose (MC) 113 % of control | dose: 60.0 mg/kg/injection, schedule: Q01DX Z (oral), vehicle: methylcellulose (MC) 117 % of control | dose: 240.0 mg/kg/injection, schedule: Q01DX Z (oral), vehicle: methylcellulose (MC) 93 % of control

CC1=C2C3OC(=O)C(C)C3C=CC2(C)C(=O)CC1 (stereo not drawn)
inactive: [4] 87 % of control | [5] 89 % of control | [6] 89 % of control

C=CC(C(=O)OCC)C(O)CCC (stereo not drawn)
inactive: [1] 104 % of control | [2] 95 % of control | dose: 100.0 mg/kg/injection, schedule: Q04DX003 (ip), vehicle: Klucel (hydroxypropylcellulose) (HPC) 95 % of control | [3] 101 % of control and 108 % of control | dose: 200.0 mg/kg/injection, schedule: Q04DX003 (ip), vehicle: Klucel (hydroxypropylcellulose) (HPC) 94 % of control | [12] 100 % of control | dose: 400.0 mg/kg/injection, schedule: Q04DX003 (ip), vehicle: Klucel (hydroxypropylcellulose) (HPC) 101 % of control

CC(C)(C)NC(=O)NN(c1ccccc1)C1CCS(=O)(=O)C1 (stereo not drawn)
inactive: [9] 108 % of control | [10] 97 % of control | [11] 97 % of control

O=C(N/N=C/NN/C=N/NC(=O)c1ccncc1)c1ccncc1
inactive: dose: 75.0 mg/kg/injection, schedule: Q01DX001 (ip), vehicle: saline 101 % of control | dose: 150.0 mg/kg/injection, schedule: Q01DX001 (ip), vehicle: saline 100 % of control

COC(=O)CCSP(=S)(Oc1ccccc1)Oc1ccccc1
inactive: [2] 107 % of control | [3] 105 % of control | [12] 96 % of control
